The assay concerns MCF-7 cells. As to the kind of experiment: Cytotoxicity assay (ATPLite cell viability, 72 h) on MCF-7 cells. The note with it: Homo sapiens, MCF7; 72 hours incubation, triplicate, ATP levels (ATPLite), inhibition of growth vs DMSO only control. The assay is classed as cell-based. As for the experimental part: Preferred compounds were analyzed for their ability to inhibit growth of tumour cells (e.g. MCF7, HL60, LL2, HeLa, PC-3, A549 and A375 cells) in vitro. Growth inhibition was tested at various concentrations in a 10 point two fold serial dilution and cells were incubated under standard mammalian tissue culture conditions for 72 hours in triplicate. Cell viability was measured by measuring ATP levels in viable cells using the ATPLite kit (PerkinElmer) as described in the user manual. Raw data was transformed to percentage inhibition of growth compared to a DMSO only control and values were expressed as IC50 in micromolar calculated using XLfit (IDBS).

The term IC50 denotes the concentration needed to halve the response being measured. Higher therefore signals weaker potency. `COC(=O)c1ccc(C)c(NS(=O)(=O)c2ccc(OC)cc2)c1` [Compound (IV), 3-[[(4-methoxyphenyl)sulfonyl]amino]-4-methyl-benzoic acid methyl ester] returned an IC50 of 0.23 µM. Regarding `COC(=O)c1ccc(C)c(NS(=O)(=O)c2ccc(C)cc2)c1` [Compound (IX), 3-[[(4-methylphenyl)sulfonyl]amino]-4-methyl-benzoic acid methyl ester], the IC50 is 0.28 µM. `CCOc1ccc(S(=O)(=O)Nc2cc(C(=O)OC)ccc2C)cc1` [Compound (V), 3-[[(4-ethoxyphenyl)sulfonyl]amino]-4-methyl-benzoic acid methyl ester] yielded an IC50 of 0.16 µM. The result for `COC(=O)c1ccc(C)c(NS(=O)(=O)c2ccc(Cl)cc2)c1` [Compound (VI), 3-[[(4-chlorophenyl)sulfonyl]amino]-4-methyl-benzoic acid methyl ester] reads 1.1 µM.

The record behind these values is patent US20110060043A1, “INHIBITORS OF CELL PROLIFERATION AND USES THEREOF” (European Molecular Biology Laboratory (EMBL), priority 2008, published 2011).
